Drawing on the NIST ThermoML archive (doi:10.1021/je0504109), this text covers mass density and viscosity for eleven compounds.

Numbers after ± are expanded uncertainties.

The data set is described as follows: xn = mol fraction of the nth substance listed. The following applies: 298.15 K, 101 kPa, Liquid.

Regarding `C1COCO1` [1,3-dioxolane] + CCC(C)=O, the mass density reads like this: (x1 = 0.0976) 818.9 ± 0.6 kg/m3; (x1 = 0.1957) 840.5 ± 0.7 kg/m3; (x1 = 0.2944) 863.1 ± 0.7 kg/m3; (x1 = 0.3935) 886.8 ± 0.7 kg/m3; (x1 = 0.4933) 911.8 ± 0.7 kg/m3; (x1 = 0.5935) 938.1 ± 0.8 kg/m3. For the same compound, the mass density runs as follows: (x1 = 0.6943) 965.5 ± 0.8 kg/m3; (x1 = 0.7956) 994.2 ± 0.8 kg/m3; (x1 = 0.8975) 1024.5 ± 0.8 kg/m3; (x1 = 1) 1057.1 ± 0.9 kg/m3. Further, the viscosity is, setting by setting: (x1 = 0.0976) 0.384 ± 0.008 mPa·s; (x1 = 0.1957) 0.397 ± 0.008 mPa·s; (x1 = 0.2944) 0.411 ± 0.008 mPa·s; (x1 = 0.3935) 0.426 ± 0.008 mPa·s; (x1 = 0.4933) 0.441 ± 0.009 mPa·s; (x1 = 0.5935) 0.456 ± 0.009 mPa·s. Besides, the viscosity by setting is: (x1 = 0.6943) 0.473 ± 0.009 mPa·s; (x1 = 0.7956) 0.491 ± 0.009 mPa·s; (x1 = 0.8975) 0.51 ± 0.01 mPa·s; (x1 = 1) 0.531 ± 0.01 mPa·s.

In the case of `C1COCO1` [1,3-dioxolane] + CCCC(=O)O, under “x1 = 1”, the mass density worked out at 1057.1 ± 0.9 kg/m3 and the viscosity came out at 0.531 ± 0.01 mPa·s.

As to `C1COCO1` [1,3-dioxolane] + CCCCN, under “x1 = 1”, the mass density came to 1057.1 ± 0.9 kg/m3 and the viscosity is recorded as 0.531 ± 0.01 mPa·s.

Take `C1COCO1` [1,3-dioxolane] + CCCCOC(C)=O: the mass density by setting is: (x1 = 0.1484) 890.7 ± 0.7 kg/m3; (x1 = 0.2816) 906.9 ± 0.7 kg/m3; (x1 = 0.4019) 923.3 ± 0.7 kg/m3; (x1 = 0.5111) 940.3 ± 0.8 kg/m3; (x1 = 0.6106) 957.8 ± 0.8 kg/m3; (x1 = 0.7017) 976.1 ± 0.8 kg/m3. Further, the mass density is 995.2 ± 0.8 kg/m3 (x1 = 0.7853), 1015 ± 0.8 kg/m3 (x1 = 0.8625), 1035.6 ± 0.9 kg/m3 (x1 = 0.9338) and 1057.1 ± 0.9 kg/m3 (x1 = 1). Moreover, the viscosity reads like this: (x1 = 0.1484) 0.621 ± 0.011 mPa·s; (x1 = 0.2816) 0.599 ± 0.011 mPa·s; (x1 = 0.4019) 0.588 ± 0.011 mPa·s; (x1 = 0.5111) 0.583 ± 0.011 mPa·s; (x1 = 0.6106) 0.577 ± 0.011 mPa·s; (x1 = 0.7017) 0.571 ± 0.01 mPa·s. Also, the viscosity was determined as 0.565 ± 0.01 mPa·s (x1 = 0.7853), 0.556 ± 0.01 mPa·s (x1 = 0.8625), 0.544 ± 0.01 mPa·s (x1 = 0.9338) and 0.531 ± 0.01 mPa·s (x1 = 1).

Regarding `C1COCCO1` [1,4-dioxane] + CCC(C)=O, under “x1 = 1”, the mass density is 1026.5 ± 0.8 kg/m3 and the viscosity is on record as 1.196 ± 0.02 mPa·s.

Regarding `C1COCCO1` [1,4-dioxane] + CCCC(=O)O, under “x1 = 1”, the mass density amounted to 1026.5 ± 0.8 kg/m3 and the viscosity is 1.196 ± 0.02 mPa·s.

Turning to `C1COCCO1` [1,4-dioxane] + CCCCN, for the setting “x1 = 1”, the mass density was 1026.5 ± 0.8 kg/m3 and the viscosity is 1.196 ± 0.02 mPa·s.

For `C1COCCO1` [1,4-dioxane] + CCCCOC(C)=O, for the setting “x1 = 1”, the mass density was found to be 1026.5 ± 0.8 kg/m3 and the viscosity was 1.196 ± 0.02 mPa·s.

As to `CCCCN` [1-butanamine] + C1COCCO1, the mass density is given as 731.9 ± 0.6 kg/m3 (x2 = 0); 753.4 ± 0.6 kg/m3 (x2 = 0.0855); 776.1 ± 0.6 kg/m3 (x2 = 0.1738); 800.1 ± 0.6 kg/m3 (x2 = 0.265); 825.8 ± 0.7 kg/m3 (x2 = 0.3594); 853.3 ± 0.7 kg/m3 (x2 = 0.4569). Moreover, the mass density reads like this: (x2 = 0.5579) 882.8 ± 0.7 kg/m3; (x2 = 0.6625) 914.7 ± 0.7 kg/m3; (x2 = 0.7709) 949.2 ± 0.8 kg/m3; (x2 = 0.8834) 986.4 ± 0.8 kg/m3. Further, the viscosity was determined as 0.493 ± 0.009 mPa·s (x2 = 0); 0.509 ± 0.01 mPa·s (x2 = 0.0855); 0.524 ± 0.01 mPa·s (x2 = 0.1738); 0.541 ± 0.01 mPa·s (x2 = 0.265); 0.56 ± 0.01 mPa·s (x2 = 0.3594); 0.59 ± 0.011 mPa·s (x2 = 0.4569). Further, the viscosity by setting is: (x2 = 0.5579) 0.637 ± 0.011 mPa·s; (x2 = 0.6625) 0.699 ± 0.012 mPa·s; (x2 = 0.7709) 0.792 ± 0.014 mPa·s; (x2 = 0.8834) 0.941 ± 0.016 mPa·s.

As for `CCCCN` [1-butanamine] + C1COCO1, the mass density by setting is: (x2 = 0) 731.9 ± 0.6 kg/m3; (x2 = 0.1001) 755.1 ± 0.6 kg/m3; (x2 = 0.2001) 779.6 ± 0.6 kg/m3; (x2 = 0.3002) 805.8 ± 0.6 kg/m3; (x2 = 0.4002) 833.8 ± 0.7 kg/m3; (x2 = 0.5002) 864.1 ± 0.7 kg/m3. The mass density (x2 = 0.6002) was determined as 896.8 ± 0.7 kg/m3, the mass density (x2 = 0.7002) is 932.1 ± 0.8 kg/m3, the mass density (x2 = 0.8001) came to 970.3 ± 0.8 kg/m3 and the mass density (x2 = 0.9001) amounted to 1011.8 ± 0.8 kg/m3. Also, the viscosity (x2 = 0) was found to be 0.493 ± 0.009 mPa·s; the viscosity (x2 = 0.1001) is 0.477 ± 0.009 mPa·s; the viscosity (x2 = 0.2001) worked out at 0.463 ± 0.009 mPa·s; the viscosity (x2 = 0.3002) is listed as 0.458 ± 0.009 mPa·s; the viscosity (x2 = 0.4002) was 0.455 ± 0.009 mPa·s; the viscosity (x2 = 0.5002) came out at 0.456 ± 0.009 mPa·s. The viscosity reads like this: (x2 = 0.6002) 0.464 ± 0.009 mPa·s; (x2 = 0.7002) 0.478 ± 0.009 mPa·s; (x2 = 0.8001) 0.496 ± 0.009 mPa·s; (x2 = 0.9001) 0.513 ± 0.01 mPa·s.

In the case of `CCCC(=O)O` [butanoic acid] + C1COCCO1, the mass density (x2 = 0) is on record as 952.8 ± 0.8 kg/m3; the mass density (x2 = 0.1) is reported as 961.7 ± 0.8 kg/m3; the mass density (x2 = 0.2) came to 970.3 ± 0.8 kg/m3; the mass density (x2 = 0.3) is 978.4 ± 0.8 kg/m3; the mass density (x2 = 0.4) came to 986.1 ± 0.8 kg/m3; the mass density (x2 = 0.5) came to 993.4 ± 0.8 kg/m3. For the same compound, the mass density was determined as 1000.2 ± 0.8 kg/m3 (x2 = 0.6), 1006.8 ± 0.8 kg/m3 (x2 = 0.7), 1013.1 ± 0.8 kg/m3 (x2 = 0.8) and 1019.4 ± 0.8 kg/m3 (x2 = 0.9). For the same compound, the viscosity worked out at 1.396 ± 0.023 mPa·s (x2 = 0); 1.504 ± 0.025 mPa·s (x2 = 0.1); 1.57 ± 0.026 mPa·s (x2 = 0.2); 1.587 ± 0.026 mPa·s (x2 = 0.3); 1.572 ± 0.026 mPa·s (x2 = 0.4); 1.507 ± 0.025 mPa·s (x2 = 0.5). Moreover, the viscosity reads like this: (x2 = 0.6) 1.443 ± 0.024 mPa·s; (x2 = 0.7) 1.362 ± 0.022 mPa·s; (x2 = 0.8) 1.293 ± 0.021 mPa·s; (x2 = 0.9) 1.241 ± 0.021 mPa·s.
